Assay results as given in PubChem BioAssay (NCI).
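Five compound concentrations were applied to cells in 96-well plates for 48 hours; endpoints were derived by simple linear interpolation of the resulting dose-response curve. GI50 = concentration required for 50% inhibition of growth. At the TGI there is no net growth.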

How the values were obtained:
Test in all cases: DTP human tumour cell line panel, 48 h
OVCAR-3 ovarian = test system: OVCAR-3 ovarian
MDA-MB-435 = test system: MDA-MB-435
OVCAR-4 ovarian = test system: OVCAR-4 ovarian
SF-268 CNS = test system: SF-268 CNS
NCI/ADR-RES ovarian = test system: NCI/ADR-RES ovarian
SK-MEL-5 melanoma = test system: SK-MEL-5 melanoma
UACC-62 melanoma = test system: UACC-62 melanoma
SK-MEL-28 melanoma = test system: SK-MEL-28 melanoma
OVCAR-8 ovarian = test system: OVCAR-8 ovarian
HL-60(TB) leukemia = test system: HL-60(TB) leukemia
T-47D breast = test system: T-47D breast
OVCAR-5 ovarian = test system: OVCAR-5 ovarian
MOLT-4 leukemia = test system: MOLT-4 leukemia
UACC-257 melanoma = test system: UACC-257 melanoma
EKVX NSCLC = test system: EKVX NSCLC
NCI-H522 lung = test system: NCI-H522 lung
HCT-116 colon = test system: HCT-116 colon
SN12C renal = test system: SN12C renal
786-0 renal = test system: 786-0 renal
CAKI-1 renal = test system: CAKI-1 renal
MALME-3M melanoma = test system: MALME-3M melanoma
HCC-2998 colon = test system: HCC-2998 colon
KM12 colon = test system: KM12 colon
A498 renal = test system: A498 renal
HOP-62 NSCLC = test system: HOP-62 NSCLC
COLO 205 colon = test system: COLO 205 colon
SK-OV-3 ovarian = test system: SK-OV-3 ovarian
HS 578T breast = test system: HS 578T breast
SW-620 colon = test system: SW-620 colon
SK-MEL-2 melanoma = test system: SK-MEL-2 melanoma
NCI-H226 lung = test system: NCI-H226 lung
SF-539 CNS = test system: SF-539 CNS
PC-3 prostate = test system: PC-3 prostate
HCT-15 colon = test system: HCT-15 colon
LOX IMVI melanoma = test system: LOX IMVI melanoma
SNB-75 CNS = test system: SNB-75 CNS
SF-295 CNS = test system: SF-295 CNS
RXF 393 renal = test system: RXF 393 renal
NCI-H460 lung = test system: NCI-H460 lung
HOP-92 NSCLC = test system: HOP-92 NSCLC
SNB-19 CNS = test system: SNB-19 CNS
IGROV1 ovarian = test system: IGROV1 ovarian
BT-549 breast = test system: BT-549 breast
M14 melanoma = test system: M14 melanoma
UO-31 renal = test system: UO-31 renal
K-562 leukemia = test system: K-562 leukemia
HT29 colon = test system: HT29 colon
U251 CNS = test system: U251 CNS
SR leukemia = test system: SR leukemia
ACHN renal = test system: ACHN renal
MDA-MB-231 breast = test system: MDA-MB-231 breast
TK-10 renal = test system: TK-10 renal
A549 NSCLC = test system: A549 NSCLC

OC1CCN(CCCOc2c3ccc(Cl)cc3nc3c2oc2ccc(Cl)cc23)CC1
GI50 (OVCAR-3 ovarian): 1.56 µM | TGI (OVCAR-3 ovarian): 4.12 µM | GI50 (MDA-MB-435): 1.34 µM | TGI (MDA-MB-435): 2.7 µM | GI50 (OVCAR-4 ovarian): 1.24 µM | TGI (OVCAR-4 ovarian): 2.79 µM | GI50 (SF-268 CNS): 1.15 µM | TGI (SF-268 CNS): 4.5 µM | GI50 (NCI/ADR-RES ovarian): 0.718 µM | TGI (NCI/ADR-RES ovarian): 2.77 µM | GI50 (SK-MEL-5 melanoma): 2.23 µM | TGI (SK-MEL-5 melanoma): 5.03 µM | GI50 (UACC-62 melanoma): 1.83 µM | TGI (UACC-62 melanoma): 3.78 µM | GI50 (SK-MEL-28 melanoma): 1.77 µM | TGI (SK-MEL-28 melanoma): 3.18 µM | GI50 (OVCAR-8 ovarian): 1.54 µM | TGI (OVCAR-8 ovarian): 18.9 µM | GI50 (HL-60(TB) leukemia): 1.48 µM | TGI (HL-60(TB) leukemia): 3.23 µM | GI50 (T-47D breast): 5.77 µM | TGI (T-47D breast): 36.5 µM | GI50 (OVCAR-5 ovarian): 1.38 µM | TGI (OVCAR-5 ovarian): 2.85 µM | GI50 (MOLT-4 leukemia): 0.443 µM | TGI (MOLT-4 leukemia): 1.96 µM | GI50 (UACC-257 melanoma): 1.79 µM | TGI (UACC-257 melanoma): 3.68 µM | GI50 (EKVX NSCLC): 2.84 µM | TGI (EKVX NSCLC): 13.2 µM | GI50 (NCI-H522 lung): 1.8 µM | TGI (NCI-H522 lung): 11.1 µM | GI50 (HCT-116 colon): 0.417 µM | TGI (HCT-116 colon): 1.59 µM | GI50 (SN12C renal): 0.864 µM | TGI (SN12C renal): 2.38 µM | GI50 (786-0 renal): 1.13 µM | TGI (786-0 renal): 2.49 µM | GI50 (CAKI-1 renal): 0.877 µM | TGI (CAKI-1 renal): 2.12 µM | GI50 (MALME-3M melanoma): 1.73 µM | TGI (MALME-3M melanoma): 3.48 µM | GI50 (HCC-2998 colon): 0.868 µM | TGI (HCC-2998 colon): 15.8 µM | GI50 (KM12 colon): 1.06 µM | TGI (KM12 colon): 3.61 µM | GI50 (A498 renal): 6.74 µM | TGI (A498 renal): 21.1 µM | GI50 (HOP-62 NSCLC): 1.85 µM | TGI (HOP-62 NSCLC): 12.5 µM | GI50 (COLO 205 colon): 1.16 µM | TGI (COLO 205 colon): 3.18 µM | GI50 (SK-OV-3 ovarian): 3.37 µM | TGI (SK-OV-3 ovarian): 15.5 µM | GI50 (HS 578T breast): 2.75 µM | TGI (HS 578T breast): 17.2 µM | GI50 (SW-620 colon): 0.455 µM | TGI (SW-620 colon): 1.79 µM | GI50 (SK-MEL-2 melanoma): 5.32 µM | TGI (SK-MEL-2 melanoma): 17.7 µM | GI50 (NCI-H226 lung): 1.67 µM | TGI (NCI-H226 lung): 4.13 µM | GI50 (SF-539 CNS): 1.36 µM | TGI (SF-539 CNS): 2.67 µM | GI50 (PC-3 prostate): 1.23 µM | TGI (PC-3 prostate): 2.55 µM | GI50 (HCT-15 colon): 0.518 µM | TGI (HCT-15 colon): 2.07 µM | GI50 (LOX IMVI melanoma): 0.298 µM | TGI (LOX IMVI melanoma): 1.42 µM | GI50 (SNB-75 CNS): 2.85 µM | TGI (SNB-75 CNS): 16.3 µM | GI50 (SF-295 CNS): 3.02 µM | TGI (SF-295 CNS): 15.8 µM | GI50 (RXF 393 renal): 1.24 µM | TGI (RXF 393 renal): 2.52 µM | GI50 (NCI-H460 lung): 0.465 µM | TGI (NCI-H460 lung): 1.99 µM | GI50 (HOP-92 NSCLC): 0.588 µM | TGI (HOP-92 NSCLC): 6.77 µM | GI50 (SNB-19 CNS): 1.45 µM | TGI (SNB-19 CNS): 3.22 µM | GI50 (IGROV1 ovarian): 1.71 µM | TGI (IGROV1 ovarian): 15 µM | GI50 (BT-549 breast): 4.51 µM | TGI (BT-549 breast): 18.9 µM | GI50 (M14 melanoma): 1.43 µM | TGI (M14 melanoma): 2.84 µM | GI50 (UO-31 renal): 0.768 µM | TGI (UO-31 renal): 2.17 µM | GI50 (K-562 leukemia): 0.417 µM | TGI (K-562 leukemia): 1.93 µM | GI50 (HT29 colon): 0.505 µM | TGI (HT29 colon): 1.77 µM | GI50 (U251 CNS): 0.876 µM | TGI (U251 CNS): 2.27 µM | GI50 (SR leukemia): 0.595 µM | TGI (SR leukemia): 2.62 µM | GI50 (ACHN renal): 0.504 µM | TGI (ACHN renal): 1.69 µM | GI50 (MDA-MB-231 breast): 1.26 µM | TGI (MDA-MB-231 breast): 2.87 µM | GI50 (TK-10 renal): 3.05 µM | TGI (TK-10 renal): 8.4 µM | GI50 (A549 NSCLC): 1.05 µM | TGI (A549 NSCLC): 2.5 µM
